Measurements as given in publication PMC3216401 (Antiviral research, 2011).
Values joined by “and” are separate entries in the source; they are usually repeats but may differ in a detail not shown here. Identical values can stand only once. Like-named read-outs stand apart in the source and are kept apart here.

How the values were obtained:
[1] = test system: influenza A/CA/07/2009 (H1N1)
[2] = test system: A/Hong Kong/213/2003H (A/Hong Kong/213/2003 × Ann Arbor/6/60 hybrid); assay: microbe, parasite or virus in culture; format: cell-based; details: Influenza A virus, MDCK, read-out: IC90, VYR Assay
[3] = test system: A/Vietnam/1203/04H (A/Vietnam/1203/04 × Ann Arbor/6/60 hybrid); assay: microbe, parasite or virus in culture; format: cell-based; details: Influenza A virus, MDCK, read-out: IC90, VYR Assay
[4] = test system: A/Hong Kong/213/2003H (A/Hong Kong/213/2003 × Ann Arbor/6/60 hybrid); assay: microbe, parasite or virus in culture; details: Influenza A virus, H1N1|H5N1, MDCK, read-out: IC50, Neutral Red Uptake Assay
B/Malaysia/2506/2004 [5] = assay: microbe, parasite or virus in culture; details: Influenza B virus, MDCK, read-out: IC50, Visual Assay
A/Gull/PA/4175/83 (H5N1) [6] = assay: microbe, parasite or virus in culture; format: cell-based; details: Influenza A virus, H5N1, MDCK, read-out: IC90, VYR Assay
[7] = test system: Influenza A/Sydney/05/97 (H3N2); assay: microbe, parasite or virus in culture; details: H3N2, MDCK, read-out: IC50, Visual Assay
[8] = test system: A/Hong Kong/213/2003H (A/Hong Kong/213/2003 × Ann Arbor/6/60 hybrid); assay: microbe, parasite or virus in culture; details: Influenza A virus, H1N1|H5N1, MDCK, read-out: IC50, Visual Assay
[9] = test system: A/Hong Kong/213/2003H (A/Hong Kong/213/2003 × Ann Arbor/6/60 hybrid)
A/Duck/MN/1525/81 (H5N1) [10] = test system: A/Duck/MN/1525/81 (H5N1)
[11] = test system: Influenza A/Sydney/05/97 (H3N2); assay: microbe, parasite or virus in culture; details: H3N2, MDCK, read-out: IC50, Neutral Red Uptake Assay
[12] = test system: Influenza A/Sydney/05/97 (H3N2); assay: microbe, parasite or virus in culture; format: cell-based; details: H3N2, MDCK, read-out: IC90, VYR Assay
B/Florida/4/2006 [13] = assay: microbe, parasite or virus in culture; details: Influenza B virus, MDCK, read-out: IC50, Neutral Red Uptake Assay
[14] = test system: A/Vietnam/1203/04H (A/Vietnam/1203/04 × Ann Arbor/6/60 hybrid); assay: microbe, parasite or virus in culture; details: Influenza A virus, H1N1|H5N1, MDCK, read-out: IC50, Neutral Red Uptake Assay
[15] = test system: A/Vietnam/1203/04H (A/Vietnam/1203/04 × Ann Arbor/6/60 hybrid); assay: microbe, parasite or virus in culture; details: Influenza A virus, H1N1|H5N1, MDCK, read-out: IC50, Visual Assay
B/Malaysia/2506/2004 [16] = assay: microbe, parasite or virus in culture; format: cell-based; details: Influenza B virus, MDCK, read-out: IC90, VYR Assay
[17] = test system: A/Vietnam/1203/04H (A/Vietnam/1203/04 × Ann Arbor/6/60 hybrid)
[18] = test system: A/Brisbane/10/2007 (H3N2)
[19] = test system: influenza A/CA/07/2009 (H1N1); remark: listed apart in the source
B/Florida/4/2006 [20] = assay: microbe, parasite or virus in culture; format: cell-based; details: Influenza B virus, MDCK, read-out: IC90, VYR Assay
[21] = test system: Influenza A/Sydney/05/97 (H3N2)
in vitro = details: dog
[22] = test system: influenza A/Vietnam/1203/2004 H5N1 virus; details: in vivo
[23] = test system: A/Brisbane/10/2007 (H3N2); assay: microbe, parasite or virus in culture; details: Influenza A virus, H3N2, MDCK, read-out: IC50, Neutral Red Uptake Assay
A/Gull/PA/4175/83 (H5N1) [24] = test system: A/Gull/PA/4175/83 (H5N1)
[25] = test system: A/Brisbane/10/2007 (H3N2); assay: microbe, parasite or virus in culture; format: cell-based; details: Influenza A virus, H3N2, MDCK, read-out: IC90, VYR Assay
B/Malaysia/2506/2004 [26] = assay: microbe, parasite or virus in culture; details: Influenza B virus, MDCK, read-out: IC50, Neutral Red Uptake Assay
A/Duck/MN/1525/81 (H5N1) [27] = assay: microbe, parasite or virus in culture; details: Influenza A virus, H5N1, MDCK, read-out: IC50, Visual Assay
B/Florida/4/2006 [28] = assay: microbe, parasite or virus in culture; details: Influenza B virus, MDCK, read-out: IC50, Visual Assay
[29] = test system: A/Brisbane/10/2007 (H3N2); remark: listed apart in the source
influenza viruses = assay: microbe, parasite or virus in culture; format: cell-based, influenza A and B viruses; details: Influenza A virus
A/Duck/MN/1525/81 (H5N1) [30] = test system: A/Duck/MN/1525/81 (H5N1); remark: listed apart in the source
A/Gull/PA/4175/83 (H5N1) [31] = test system: A/Gull/PA/4175/83 (H5N1); remark: listed apart in the source
[32] = test system: Influenza A/Sydney/05/97 (H3N2); remark: listed apart in the source
A/Duck/MN/1525/81 (H5N1) [33] = assay: microbe, parasite or virus in culture; format: cell-based; details: Influenza A virus, H5N1, MDCK, read-out: IC90, VYR Assay
[34] = MDCK, read-out: IC90 values, range over viruses of Table 3

## Nc1ccn([C@@H]2O[C@H](CO)[C@@H](O)C2(F)F)c(=O)n1 [2’-deoxy-2’, 2’-difluorocytidine, reference compound]
[1]
  SI (CC50/IC50), Neutral Red Uptake Assay: 6.9
[2]
  IC90: 0.04 µM
[3]
  IC90: 0.32 µM
[4]
  IC50: 0.065 µM
B/Malaysia/2506/2004 [5]
  IC50: < 0.032 µM
A/Gull/PA/4175/83 (H5N1) [6]
  IC90: 0.13 µM
[7]
  IC50: 0.18 µM
[8]
  IC50: < 0.032 µM
[9]
  SI (CC50/IC50), Neutral Red Uptake Assay: >1538
A/Duck/MN/1525/81 (H5N1) [10]
  SI (CC50/IC50), Neutral Red Uptake Assay: >880
[11]
  IC50: 1.2 µM
[12]
  IC90: 1.6 µM
B/Florida/4/2006 [13]
  IC50: < 0.32 µM
[14]
  IC50: < 0.32 µM
[15]
  IC50: < 0.32 µM
B/Malaysia/2506/2004 [16]
  IC90: 0.11 µM
[17]
  SI (CC50/IC50), Visual Assay: >1000
[18]
  SI (CC50/IC50), Neutral Red Uptake Assay: 8.1
[19]
  SI (CC50/IC50), Visual Assay: 11.7
B/Florida/4/2006 [20]
  IC90: 1.7 µM
[21]
  SI (CC50/IC50), Neutral Red Uptake Assay: 5.7
In vitro; CC50 values, range, visual assay
  CC50: 2.1 to 530 µM
[22]
  Inhibition in the H5N1 mouse model: not inhibitory
  Toxicity in the H5N1 mouse model: very toxic
[22]; mouse
  Protection against lethal challenge: not significantly effective
[23]
  IC50: 0.16 µM
A/Gull/PA/4175/83 (H5N1) [24]
  SI (CC50/IC50), Neutral Red Uptake Assay: 370
[25]
  IC90: 0.14 µM
B/Malaysia/2506/2004 [26]
  IC50: 0.068 µM
A/Duck/MN/1525/81 (H5N1) [27]
  IC50: < 0.32 µM
B/Florida/4/2006 [28]
  IC50: < 0.32 µM
[29]
  SI (CC50/IC50), Visual Assay: 43
Influenza viruses; [34]
  IC90: 0.03 to 2.1 µM
A/Duck/MN/1525/81 (H5N1) [30]
  SI (CC50/IC50), Visual Assay: >1700
A/Gull/PA/4175/83 (H5N1) [31]
  SI (CC50/IC50), Visual Assay: >480
[32]
  SI (CC50/IC50), Visual Assay: 67
A/Duck/MN/1525/81 (H5N1) [33]
  IC90: 0.25 µM

## Nc1ccn([C@@H]2O[C@H](CO)[C@@H](O)[C@H]2F)c(=O)n1 [2’-deoxy-2’-fluorocytidine, 2'-deoxy-2'-fluorocytidine]
[1]
  SI (CC50/IC50), Neutral Red Uptake Assay: >24
[2]
  IC90: 5.1 µM
[3]
  IC90: 2.9 µM
[4]
  IC50: 7.2 µM
B/Malaysia/2506/2004 [5]
  IC50: 1.9 µM
A/Gull/PA/4175/83 (H5N1) [6]
  IC90: 6.1 µM
[7]
  IC50: 0.59 µM
[8]
  IC50: 1.3 µM
[9]
  SI (CC50/IC50), Neutral Red Uptake Assay: >14
A/Duck/MN/1525/81 (H5N1) [10]
  SI (CC50/IC50), Neutral Red Uptake Assay: >480
[11]
  IC50: 2.5 µM
[12]
  IC90: 6.7 µM
B/Florida/4/2006 [13]
  IC50: 1.4 µM
[14]
  IC50: 3.4 µM
[15]
  IC50: 2.1 µM
B/Malaysia/2506/2004 [16]
  IC90: 7.3 µM
[17]
  SI (CC50/IC50), Visual Assay: >48
[18]
  SI (CC50/IC50), Neutral Red Uptake Assay: >7.1
[19]
  SI (CC50/IC50), Visual Assay: >31
B/Florida/4/2006 [20]
  IC90: 2.1 µM
[21]
  SI (CC50/IC50), Neutral Red Uptake Assay: >40
In vitro; CC50, Visual Assay
  CC50: > 100 µM
[22]; female, BALB/c, mouse, ip
  Maximum tolerated effective dose: 60 mg/kg/day
[22]; mouse
  Lung Score ± SD: 0.4 ± 0.25 and 0.2 ± 0.27
  Mice protected from lethal effects: 60%
  Protection from death, i.p.: partially, but significantly protected from death
  Protection from mortality, per os: not protected from mortality
  Virus Lung Titers ± SD: 3.60 ± 1.303 Log10/g and 4.01 ± 0.713 Log10/g
[23]
  IC50: 14 µM
A/Gull/PA/4175/83 (H5N1) [24]
  SI (CC50/IC50), Neutral Red Uptake Assay: >91
[25]
  IC90: 6.8 µM
B/Malaysia/2506/2004 [26]
  IC50: 4.1 µM
A/Duck/MN/1525/81 (H5N1) [27]
  IC50: 0.25 µM
B/Florida/4/2006 [28]
  IC50: 1 µM
[29]
  SI (CC50/IC50), Visual Assay: >100
Influenza viruses; H1N1|H3N2, MDCK, read-out: IC90 values, range for the H3N2 and H1N1 viruses tested
  IC90: 4.6 to 6.8 µM
Influenza viruses; H1N1|H5N1, MDCK, read-out: IC90 values, range for the hybrid H1N1 viruses expressing the H5N1 HA and NA proteins
  IC90: 2.9 to 5.1 µM
Influenza viruses; [34]
  IC90: 1.2 to 7.3 µM
A/Duck/MN/1525/81 (H5N1) [30]
  SI (CC50/IC50), Visual Assay: >400
A/Gull/PA/4175/83 (H5N1) [31]
  SI (CC50/IC50), Visual Assay: >110
[32]
  SI (CC50/IC50), Visual Assay: >170
A/Duck/MN/1525/81 (H5N1) [33]
  IC90: 5.9 µM
